According to patent US20200131669A1, “CYCLIC PEPTIDE COMPOUND HAVING HIGH MEMBRANE PERMEABILITY, AND LIBRARY CONTAINING SAME” (Chugai Seiyaku Kabushiki Kaisha, priority 2017, published 2020):
Starred links: 1 amine or outer side, 2 acyl side, 3 side chain; linkers in the order of their positions; H or OH if unused. Positions of bridges follow the written chain, without caps; N, C: chain ends. Non-standard residues stand in square brackets, D forms with d. Residues, ends and D or L forms follow the SMILES beside them. *: point of attachment. NMeAbu(3,3-F2-piperidino) = CN[C@@H](CCN1CCCC(F)(F)C1)C(=O)O; X6 = CN([C@@H](CCN1CCC(F)(F)CC1)C(=O)[*:2])[*:1]; 3Pal(6-NMe2) = CN(C)c1ccc(C[C@H](N)C(=O)O)cn1; N(isopentyl)Gly = CC(C)CCNCC(=O)O; Hyp = O=C(O)[C@@H]1C[C@@H](O)CN1; NMeF = CN[C@@H](Cc1ccccc1)C(=O)O; NMeGABA = CN(CCCC(=O)[*:2])[*:1]; NMeI = CC[C@H](C)[C@H](NC)C(=O)O; NMeL = CN[C@@H](CC(C)C)C(=O)O; NMeV = CN[C@H](C(=O)O)C(C)C; NMeA = CN[C@@H](C)C(=O)O; Piperidide = C1CCN(*)CC1; NBuGly = CCCCNCC(=O)O; Isopentyl = CC(C)CC*; Sar = CNCC(=O)O; tBu = CC(C)(C)*

Assay: Caco-2 membrane permeability, improved method as used in the following Examples (96-well, 20 to 24 h preincubation)
Format: in vitro ADME
Settings: human, Caco-2, Caco-2
Procedure, shortened: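 Papp (cm/sec) was derived from LC/MS of basal samples collected 180 min after apical dosing in FaSSIF/HBSS pH 6.0 with 1% DMSO, against a basal HBSS pH 7.4 receiver containing 4% BSA. Three-week Caco-2 cultures were first preincubated with compound in DMEM+FaSSIF at 37 °C for 20–24 h.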

SMILES	Papp A→B at 180 min
CCO[C@@H]1C[C@H]2C(=O)N(C)[C@@H](CC(C)C)C(=O)N[C@@H](COC(C)(C)C)C(=O)N3CCC[C@H]3C(=O)N[C@@H]([C@@H](C)O)C(=O)N(C)[C@@H](CC(C)C)C(=O)N(C)[C@@H](CC(C)C)C(=O)N(C)[C@@H](CC(C)C)C(=O)N[C@H](C(=O)N3CCCCC3)CC(=O)N[C@H](CC(C)C)C(=O)N(C)[C@@H]([C@@H](C)CC)C(=O)N2C1 [pd384] ([dL][NMeI][Hyp](Et)[NMeL]S(tBu)PT[NMeL][NMeL][NMeL]D-Piperidide; lactam N-11)	3.3 ×10⁻⁶ cm/s
CCO[C@@H]1C[C@H]2C(=O)N[C@@H]([C@@H](C)O)C(=O)N(C)[C@@H](CC(C)C)C(=O)N(C)[C@@H](CC(C)C)C(=O)N(C)[C@@H](CC(C)C)C(=O)N[C@H](C(=O)N3CCCCC3)CC(=O)N[C@H](CC(C)C)C(=O)N(C)[C@@H]([C@@H](C)CC)C(=O)N3CCC[C@H]3C(=O)N(C)[C@@H](CC(C)C)C(=O)N[C@@H](COC(C)(C)C)C(=O)N2C1 [pd385] ([dL][NMeI]P[NMeL]S(tBu)[Hyp](Et)T[NMeL][NMeL][NMeL]D-Piperidide; lactam N-11)	3.4 ×10⁻⁶ cm/s
CCCCN1CC(=O)N(C)[C@@H](CC(C)C)C(=O)N[C@@H](COC(C)(C)C)C(=O)N(C)[C@@H](Cc2ccccc2)C(=O)N(C)[C@@H](C(C)C)C(=O)N[C@H](C(=O)N2CCCCC2)CC(=O)N[C@H](C)C(=O)N(C)[C@@H](Cc2ccccc2)C(=O)N[C@@H](CC(C)C)C(=O)N(C)[C@@H](CCN2CCCC(F)(F)C2)C(=O)N[C@@H]([C@@H](C)O)C1=O [pd386] ([dA][NMeF]L[NMeAbu(3,3-F2-piperidino)]T[NBuGly][NMeL]S(tBu)[NMeF][NMeV]D-Piperidide; lactam N-11)	2.3 ×10⁻⁶ cm/s
CC(C)C[C@@H]1NC(=O)[C@H](Cc2ccccc2)N(C)C(=O)[C@@H](C(C)C)NC(=O)C[C@@H](C(=O)N2CCCCC2)NC(=O)[C@H](C(C)C)N(C)C(=O)[C@H](Cc2ccccc2)N(C)C(=O)[C@H](COC(C)(C)C)NC(=O)[C@H](CCN2CCCC(F)(F)C2)N(C)C(=O)CN(C)C(=O)[C@H]([C@@H](C)O)NC(=O)[C@H](CC(C)C)N(C)C1=O [pd387] ([dV][NMeF]L[NMeL]T[Sar][NMeAbu(3,3-F2-piperidino)]S(tBu)[NMeF][NMeV]D-Piperidide; lactam N-11)	3.5 ×10⁻⁶ cm/s
CCCCN1CC(=O)N(C)[C@@H](C(C)C)C(=O)N[C@@H](CC(C)C)C(=O)N(C)[C@@H](Cc2ccccc2)C(=O)N(C)[C@@H](CCN2CCCC(F)(F)C2)C(=O)N[C@H](C(=O)N2CCCCC2)CC(=O)N[C@H](C)C(=O)N(C)[C@@H](Cc2ccccc2)C(=O)N[C@@H](CC(C)C)C(=O)N(C)[C@@H](CC(C)C)C(=O)N[C@@H]([C@@H](C)O)C1=O [pd388] ([dA][NMeF]L[NMeL]T[NBuGly][NMeV]L[NMeF][NMeAbu(3,3-F2-piperidino)]D-Piperidide; lactam N-11)	1.8 ×10⁻⁶ cm/s
CC(C)C[C@@H]1NC(=O)[C@H](Cc2ccccc2)N(C)C(=O)[C@H](Cc2ccccc2)N(C)C(=O)[C@H](CC(C)C)NC(=O)[C@H](CC(C)C)N(C)C(=O)CCCN(C)C(=O)C[C@@H](C(=O)N2CCCCC2)NC(=O)[C@H](C)N(C)C(=O)[C@H](CCN2CCCC(F)(F)C2)N(C)C(=O)[C@H]([C@@H](C)O)NC(=O)[C@H](CC(C)C)N(C)C1=O [pd390] ([NMeGABA][NMeL]L[NMeF][NMeF]L[NMeL]T[NMeAbu(3,3-F2-piperidino)][NMeA]D-Piperidide; lactam N-11)	2 ×10⁻⁶ cm/s
CC(C)C[C@@H]1NC(=O)[C@H](C)N(C)C(=O)C[C@@H](C(=O)N2CCCCC2)NC(=O)[C@H](C(C)C)N(C)C(=O)CN(C)C(=O)[C@H]([C@@H](C)O)NC(=O)[C@H](CCN2CCCC(F)(F)C2)N(C)C(=O)[C@H](Cc2ccccc2)N(C)C(=O)[C@H](CC(C)C)NC(=O)[C@H](Cc2ccccc2)N(C)C(=O)[C@H](CC(C)C)N(C)C1=O [pd391] ([NMeA]L[NMeL][NMeF]L[NMeF][NMeAbu(3,3-F2-piperidino)]T[Sar][NMeV]D-Piperidide; lactam N-11)	2.4 ×10⁻⁶ cm/s
CCCCN1CC(=O)N(C)[C@@H](CCN2CCCC(F)(F)C2)C(=O)N[C@H](C(=O)N2CCCCC2)CC(=O)N(C)[C@@H](C)C(=O)N[C@@H](CC(C)C)C(=O)N(C)[C@@H](CC(C)C)C(=O)N(C)[C@@H](Cc2ccccc2)C(=O)N[C@@H](CC(C)C)C(=O)N(C)[C@@H](Cc2ccccc2)C(=O)N(C)[C@@H](C)C(=O)N[C@@H]([C@@H](C)O)C1=O [pd392] ([NMeA]L[NMeL][NMeF]L[NMeF][NMeA]T[NBuGly][NMeAbu(3,3-F2-piperidino)]D-Piperidide; lactam N-11)	3.5 ×10⁻⁶ cm/s
CC(C)CCOC[C@@H]1NC(=O)[C@H](CCN2CCCC(F)(F)C2)N(C)C(=O)[C@H](Cc2ccccc2)N(C)C(=O)CN(C)C(=O)[C@H]([C@@H](C)O)NC(=O)[C@H](CC(C)C)N(C)C(=O)[C@H](CC(C)C)NC(=O)[C@H](Cc2ccccc2)N(C)C(=O)CN(C)C(=O)C[C@@H](C(=O)N2CCCCC2)NC(=O)[C@H](CC(C)C)N(C)C1=O [pd393] ([Sar][NMeF]L[NMeL]T[Sar][NMeF][NMeAbu(3,3-F2-piperidino)]S(Isopentyl)[NMeL]D-Piperidide; lactam N-11)	2.5 ×10⁻⁶ cm/s
CCCCN1CC(=O)N(C)[C@@H](CC(C)C)C(=O)N[C@@H](CC(C)C)C(=O)N(C)[C@@H](Cc2ccccc2)C(=O)N(C)[C@@H](C)C(=O)N[C@H](C(=O)N2CCCCC2)CC(=O)N[C@H](C(C)C)C(=O)N(C)[C@@H](Cc2ccccc2)C(=O)N[C@@H](CC(C)C)C(=O)N(C)[C@@H](CCN2CCC(F)(F)CC2)C(=O)N[C@@H]([C@@H](C)O)C1=O [pd394] ([dV][NMeF]L[X6]T[NBuGly][NMeL]L[NMeF][NMeA]D-Piperidide; lactam N-11)	1.8 ×10⁻⁶ cm/s
CCCCN1CC(=O)N(C)[C@@H](Cc2ccccc2)C(=O)N[C@@H](CC(C)C)C(=O)N(C)[C@@H](CC(C)C)C(=O)N[C@@H]([C@@H](C)O)C(=O)N(C)CC(=O)N(C)[C@@H](Cc2ccccc2)C(=O)N(C)[C@@H](CCN2CCC(F)(F)CC2)C(=O)N[C@@H](CC(C)C)C(=O)N(C)[C@@H](C(C)C)C(=O)N[C@H](C(=O)N2CCCCC2)CC1=O [pd395] ([NBuGly][NMeF]L[NMeL]T[Sar][NMeF][X6]L[NMeV]D-Piperidide; lactam N-11)	1.7 ×10⁻⁶ cm/s
CC(C)CCN1CC(=O)N(C)[C@@H](CC(C)C)C(=O)N[C@@H](COC(C)(C)C)C(=O)N(C)[C@@H](Cc2ccccc2)C(=O)N(C)[C@@H](C(C)C)C(=O)N[C@H](C(=O)N2CCCCC2)CC(=O)N[C@H](C)C(=O)N(C)[C@@H](CC(C)C)C(=O)N[C@@H](Cc2ccc(N(C)C)nc2)C(=O)N(C)[C@@H](CC(C)C)C(=O)N[C@@H]([C@@H](C)O)C1=O [pd396] ([dA][NMeL][3Pal(6-NMe2)][NMeL]T[N(isopentyl)Gly][NMeL]S(tBu)[NMeF][NMeV]D-Piperidide; lactam N-11)	1.5 ×10⁻⁶ cm/s
CC(C)C[C@@H]1NC(=O)[C@H](CC(C)C)N(C)C(=O)CCCN(C)C(=O)C[C@@H](C(=O)N2CCCCC2)NC(=O)[C@H](CC(C)C)N(C)C(=O)[C@H](CC(C)C)N(C)C(=O)[C@H]([C@@H](C)O)NC(=O)[C@H](CC(C)C)N(C)C(=O)[C@H](Cc2ccc(N(C)C)nc2)NC(=O)[C@H](Cc2ccccc2)N(C)C(=O)[C@H](CC(C)C)N(C)C1=O [pd397] ([NMeGABA][NMeL]L[NMeL][NMeF][3Pal(6-NMe2)][NMeL]T[NMeL][NMeL]D-Piperidide; lactam N-11)	1.2 ×10⁻⁶ cm/s
